Reference: patent US12011452B2, “Compositions and methods for treatment of mitochondrial respiratory chain dysfunction and other mitochondrial disorders” (The Children's Hospital of Philadelphia, priority 2018, dated 2024)

Key:
hsp-6p::GFP [1] = assay: Mitochondrial stress (UPRmt) hsp-6p::GFP induction in dld-1 RNAi worms; type: in vivo, C. elegans; conditions: for HSP-6P::GFP: dld-1 RNAi worms, conc.: Nicotinic Acid 1 mM, Riboflavin 10 uM, Thiamine 25 mM, L-Carnitine 100 uM, Folinic Acid 10 uM, Glucose 10 uM, DCA 25 mM, Cysteamine 100 um, NAC 2.5 Mm, AICAR 500 uM, Hydralazine 200 uM, Lithium Chloride 10 mM, Cyclohexamide 2 uM, Arginine 10 mM, Taurine 800 uM, Resveratrol 50 uM, Rapamycin 2.5 nM, Probucol 5 uM, Lipoic Acid 10 uM, Vitamin E 250 uM
Method: (§1) Brood size analysis—Worms were synchronized by picking ten to fifteen N2 gravid adult worms onto NGM plates containing 0.2 mM IPTG, ampicillin and tetracycline spread with DLD-1 (LLCI.3) or L4440 bacteria and allowed to lay eggs for 2-2.5 hours. A single L4 larvae from the egg lay was placed on a 4 mm dish containing NGM and corresponding RNAi clone and allowed to lay eggs for 24 hours before being transferred to a fresh 4 mm NGM plate. Worms were transferred to fresh plates for 5 days and progeny were counted from each plate. Western blot analysis—Approximately 500 young adult worms were briefly washed with S. basal media before resuspension in 250 uL of RIPA buffer (50 mM Tris HCl, pH 8.0, 150 mM NaCl, 1.0% NP-40, 0.5% sodium deoxycholate, 1.0 mM EDTA, 0.1% SDS) containing a 1/100 dilution of Protease inhibitor cocktail (Sigma). Worms were lysed using a mechanical hand homogenizer and pestle on ice and the resulting lysate was maintained at constant agitation for 30 minutes at 4° C. Lysate was subsequently centrifuged for 20 minutes at 16,000 rpm and the supernatant was removed. Protein concentration was determined using the Pierce BCA protein assay kit. 30 ug of whole cell lysate was utilized and blots were probed with anti-LAD monoclonal antibody at a 1:7500 dilution (abcam) to detect the DLD-1 protein. As a loading control blots were additionally probed with anti-Beta tubulin (source) at a […]. Chemotaxis Assay—Chemotaxis analysis was performed as has been previously described (Haroon, S. J. of Cell Reports (2018); pmid:29562168). In brief, approximately 30 worms were collected and washed with S. basal media. Worms were placed 5 cm away from a spot containing 2 uL of 10% isoamyl alcohol dissolved in 100% ethanol and 1 uL of 10% sodium azide. After one hour distance traveled by each worm was marked and analyzed via image J. Length Analysis—A synchronized population of worms grown on L4440 and LLCI.3 RNAi clones were monitored from the L4 stage of development till day 5 of adulthood. On the day of length analysis […] Quantification of Hsp6::GFP induction—A synchronized egg lay using 15-20 Hsp6::GFP gravid young adult worms on L4440 or LLCI.3 RNAi clones was performed to induce depletion of DLD-1 protein. Day 1 young adult worms were washed once in 4-5 mL of S. basal in a 50 mL conical tube and pelleted by centrifugation at 1300×g for 1 minute. Spent S. basal was removed and worms were resuspended in a final volume of 10 mL in preparation for biosorter analysis. An excitation wavelength of 488 nm and emission filter of 510 nm was utilized to measure induction of Hsp6::GFP induction in individual worms. Experiments were conducted with approximately 300 worms per sample with three biological replicates for each condition tested.
(§2) DLD depletion in C. elegans was achieved by feeding wild-type (N2 Bristol) worms E. coli expressing a dsRNA targeting DLD-1 messenger RNA. Brood size, survival, activity, growth (length), DLD-1 expression, and mitochondrial unfolded protein response (UPR^mt) were quantified in the resulting DLD-1^−/− animals. High throughput semi-automated analyses of animal growth (length) and mitochondrial stress response (UPR^mt) were also measured in day 1 adult worm populations using the COPAS Biosorter (Union Biometrica).
(§3) Therapeutic impact on DLD-1^−/− C. elegans UPR^mt induction and growth (length), as well as DLDH−/− zebrafish survival, liver morphology, and swimming behavior were tested for 5 therapies, including a PDH activator (dichloroacetate, DCA), PDH cofactors (thiamine, riboflavin, lipoic acid), and a lipid lowering drug that functions as a signaling modifier to inhibit mTORCI and activate AMPK and PPAR (probucol).

[2] = system: DLD-1 deficient (did-1 RNAi) C. elegans; assay: Animal size (length) of DLD-1 deficient (dld-1 RNAi) worms, COPAS Biosorter; type: in vivo; conditions: for Size: dld-1 RNAi worms, conc.: Nicotinic Acid 1 mM, Riboflavin 10 uM, Thiamine 25 mM, L-Carnitine 100 uM, Folinic Acid 10 uM, Glucose 10 uM, DCA 25 mM, Cysteamine 100 um, NAC 2.5 Mm, AICAR 500 uM, Hydralazine 200 uM, Lithium Chloride 10 mM, Cyclohexamide 2 uM, Arginine 10 mM, Taurine 800 uM, Resveratrol 50 uM, Rapamycin 2.5 nM, Probucol 5 uM, Lipoic Acid 10 uM, Vitamin E 250 uM; for increase in worm growth (length): DLD-1 RNAi worms treated from birth, 50 μM Riboflavin, 25 mM Thiamine, adult day 1
Method: RNAi feeding—DLD-1 RNAi clone (LLC1.3) was obtained from the Ahringer RNAi collection and was sequence confirmed prior to use. The vector L4440 was utilized as a control.
as §1, §2, §3

dldh−/− zebrafish = assay: dldh-/- zebrafish larvae: liver size and survival; type: in vivo; conditions: 10 μM lipoic acid; for decrease in liver size / liver disease compared to untreated DLDH−/− larvae: treatment from 2 dpf, 5 μM Probucol, 8 dpf
Method: FIGS. 20A-20B: Treatment of zebrafish larvae from 2 dpf with 10 μM lipoic acid and 5 μM Probucol. (FIG. 20A) Images were taken of larvae at 8 dpf and liver area was measured using Image J. P<0.05. (FIG. 20B) Survival analysis. Death was defined by absence of heartbeat.
C. elegans dld-1+/− heterozygous mutant worms display hallmarks of mitochondrial dysfunction such as decreased lifespan and activity. (FIGS. 12A, 12B), although this is likely attributed to their balancer chromosomal mutation (unc) since homozygosity for DLD knockout is lethal in C. elegans. While we have employed a previously identified C. elegans mutant, RNAi can also be employed to characterize variable to complete gene knockout mutants. DLDH deletion zebrafish mutants lacking a portion of exon 1 were generated using CRISPR/Cas9 gene editing via microinjection at the 1-cell stage. (FIG. 13). Animal viability, organ development, swim behavior, DLD-1 protein expression, and electron transport chain enzyme activity analyses were evaluated in DLDH mutant relative to AB (wild-type) zebrafish. Liver physiology was studied by Oil Red 0 staining and transmission electron microscopy. […] Control and dldh CRISPR injected Zebrafish Larvae lateral viewed at 1.6× magnification are shown in FIG. 14A. dldh−/− larvae show swollen liver and deflated swim bladder compared to wild-type controls at 8 dpf. FIG. 14B. Survival analysis comparing control and dldh−/− zebrafish, N=30 larvae for each group. Death was defined by absence of a heartbeat. FIGS. 14C and 14D show protection from rotenone induced Complex I dysfunction using the three component composition comprising NAC, NA and glucose.
as §3

SURF1-del1−/− zebrafish [3] = conditions: 6-7 dpf
[4] = adults; cited from earlier work
gas-1(fc21) worms = assay: Mitochondrial physiology (TMRE, MitoSOX, MitoTracker Green) in gas-1(fc21) worms; type: in vivo, C. elegans; conditions: 24 hour treatment
Method: Mitochondrial oxidant burden (MitoSOX Red), membrane potential (tetramethylrhodamine ethyl ester, TMRE), and mitochondrial content (MitoTracker Green FM, MTG) were performed in C. elegans at 20° C. using in vivo terminal pharyngeal bulb relative fluorescence microscopic quantitation. […] Simultaneously with the drug treatments, worms were treated with either 10 μM MitoSOX Red (matrix oxidant burden), 100 nM TMRE (mitochondrial membrane potential), or 2 μM MitoTracker Green FM (mitochondria content) for 24 h. The next day, worms were transferred with a pick onto 35 mm agar plates spread with OP50 E. coli without dye for 1 h to allow clearing of residual dye from the gut. Worms were then paralyzed in situ with 5 mg/ml levamisole. Photographs were taken in a darkened room at 160× magnification with a Cool Snap cf2 camera (Nikon, Melville, N.Y.). A CY3 fluorescence cube set (MZFLIII, Leica, Bannockburn, IL) was used for MitoSOX and TMRE. […] Fluorescence data for each strain were normalized to its same day control to account for day-to-day variation. […] The significance of the difference in the mean fluorescence intensity between strains under different experimental conditions was assessed by mixed-effect ANOVA, which analyzes potential batch effect due to samples being experimentally prepared, processed, and analyzed on different days by including a batch random effect in the model. […]

gas-1(fc21) C. elegans = assay: Lifespan of gas-1(fc21) Complex I NDUFS2 mutant worms; type: in vivo; conditions: administered at development (L1); previous studies in applicant's lab
SURF1-del1−/− zebrafish [5] = assay: SURF1 knockout zebrafish pre-treatment before NaN3 exposure: brain death, startle response; type: in vivo
Text: The phenotypes assessed can include without limitation, swimming activity or swimming fatigue, organ structural impairment or dysfunction gray brain alterations in mitochondrial physiology (=brain death) (FIG. 36C), heart rate, startle (tap) response (stimulus on plate), and touch response (stimulus on animal).
hsp-6p::GFP [6] = assay: UPRmt in K09A9.5 (gas-1) knockdown hsp-6p::gfp reporter worms; type: in vivo, C. elegans; conditions: 10 mM Glu, 2.5 mM NAC, 1 mM Nicotinic acid
Method: UPRmt in C. elegans is assessed using a GFP reporter for hsp-6.

[7] = pre-treated from 5 dpf, 45 μM NaN3 from 6 dpf, assessed 7 dpf

| Compound | HSP-6P::GFP (hsp-6p::GFP [1]) | Size [2] | further results |
| --- | --- | --- | --- |
| Nc1nc(=O)c2c([nH]1)NCC(CNc1ccc(C(=O)N[C@@H](CCC(=O)O)C(=O)O)cc1)N2C=O (mixture of isomers) [Folinic Acid] | Increase | No Effect |  |
| O=C(O)CCCC[C@@H]1CCSS1 (racemic) [Lipoic Acid] | Increase | No Effect | extension of animal survival (dldh−/− zebrafish; pre-treatment from 2 dpf): 3 days; decrease in liver size / liver disease compared to untreated DLDH−/− larvae (dldh−/− zebrafish): 58% |
| NC(=O)c1ncn([C@@H]2O[C@H](CO)[C@@H](O)[C@H]2O)c1N [AICAR] | Decrease | No Effect |  |
| N=C(N)NCCC[C@H](N)C(=O)O [Arginine] | Increase | No Effect |  |
| C[C@@H]1C[C@@H]([C@H](O)CC2CC(=O)NC(=O)C2)C(=O)[C@@H](C)C1 [Cyclohexamide] | Increase | No Effect |  |
| NCCS [Cysteamine] | No Effect | No Effect |  |
| NNc1nncc2ccccc12 [Hydralazine] | No Effect |  |  |
| C[N+](C)(C)C[C@H](O)CC(=O)[O-] [L-Carnitine] | No Effect | No Effect |  |
| [Cl-].[Li+] [Lithium Chloride] | Decrease | No Effect |  |
| [N-]=[N+]=[N-] [NaN3, Sodium Azide] |  |  | azide concentration giving reduced heartrate and neuromuscular (startle) response (Wild-type zebrafish; 6-7 dpf): 100 µM; NaN3 concentration at which brain death develops (Wild-type zebrafish; exposure from 6 dpf, by 7 dpf): 100 µM; NaN3 concentration with complete penetrance of brain death phenotype (Wild-type zebrafish; exposure from 6 dpf, by 7 dpf): 150 µM; NaN3 concentration of brain death onset (SURF1-del1−/− zebrafish [3]): 40 µM; NaN3 concentration with complete penetrance of brain death (SURF1-del1−/− zebrafish [3]): 50 µM; azide concentration at which bradycardia and reduced startle response start (SURF1-del1−/− zebrafish [3]): 40 µM |
| NC(=O)c1cccnc1 [Nicotinamide] |  |  | dose that may be toxic to the liver [4]: exceeding 3 g/day |
| O=C(O)c1cccnc1 [Nicotinic Acid, Nicotinic acid] | No Effect | No Effect | effect on mitochondrial oxidant burden (gas-1(fc21) worms): significantly reduces; rescue of short lifespan of gas-1(fc21) to wild type N2 levels by individual compounds (gas-1(fc21) C. elegans): partially or fully rescue; effect on sodium azide treated (stressor) brains of surf1 KO zebrafish (SURF1-del1−/− zebrafish [5]; FIG. 36D): protective effects; UPRmt stress response (hsp-6p::gfp fluorescence) (hsp-6p::GFP [6]): no effect |
| CC(C)(Sc1cc(C(C)(C)C)c(O)c(C(C)(C)C)c1)Sc1cc(C(C)(C)C)c(O)c(C(C)(C)C)c1 [Probucol] | No Effect | No Effect | decrease in liver size / liver disease compared to untreated DLDH−/− larvae (dldh−/− zebrafish): 49% |
| CO[C@H]1C[C@@H]2CC[C@@H](C)[C@@](O)(O2)C(=O)C(=O)N2CCCC[C@H]2C(=O)O[C@H]([C@H](C)C[C@@H]2CC[C@@H](O)[C@H](OC)C2)CC(=O)[C@H](C)/C=C(\C)[C@@H](O)[C@@H](OC)C(=O)[C@H](C)C[C@H](C)/C=C/C=C/C=C/1C [Rapamycin] | No Effect | No Effect |  |
| Oc1ccc(C=Cc2cc(O)cc(O)c2)cc1 [Resveratrol] | Increase | Increase | rescue of short lifespan of gas-1(fc21) to wild type N2 levels by individual compounds (gas-1(fc21) C. elegans): partially or fully rescue |
| Cc1cc2nc3c(=O)[nH]c(=O)nc-3n(C[C@H](O)[C@H](O)[C@H](O)CO)c2cc1C [Riboflavin] | Increase | Increase | increase in worm growth (length) [2]: 33% |
| NCCS(=O)(=O)O [Taurine] | Decrease | Increase |  |
| Cc1ncc(C[n+]2csc(CCO)c2C)c(N)n1 [Thiamine] | Decrease | Increase | reduction of UPRmt (HSP6::GFP fluorescence) relative to untreated DLD-1−/− worms (hsp-6p::GFP [1]; treatment from early development, 25 mM DCA, 25 mM Thiamine, adult day 1): 18%; increase in worm growth (length) [2]: 16% |
| NCCS.O=C(O)C(O)C(O)C(=O)O (centres unmarked) [cysteamine bitartrate] |  |  | brain death from NaN3 exposure (SURF1-del1−/− zebrafish [5]; [7]): prevented; neuromuscular dysfunction (startle response) from NaN3 exposure (SURF1-del1−/− zebrafish [5]; [7]): prevented |
| Vitamin E | Increase | No Effect |  |
